Experimental data from patent US12509447B2, “Small molecule compound” (Technoderma Medicines Pte Ltd, priority 2019, dated 2025).

Tests used:
Assay type in all cases: biochemical
JAK2 = JAK2 (Homo sapiens, UniProt O60674); experiment: Inhibition of JAK kinase activity, EZ Reader microfluidic phosphorylation of peptide substrate: JAK2; details: JAK2 kinase 1 nM; highest final concentration 10 μM, 1:3 serial dilution, 8 points, duplicates
Text: (§1) EZ Reader available from PerkinElmer can be used for detecting the phosphorylation of polypeptide substrates catalyzed by kinases. This device is based on microfluidic separation technology, and can directly detect fluorescence labeled substrates and products. The separation step is achieved in a microfluidic chip by controlling the pressure and electric field intensity. In a kinase experiment, the product conversion rate is generally controlled at 20-30%. This biological assay method is used for identifying the inhibitory effect of the compounds on JAK.
(§2) The compound powder was dissolved in DMSO, sealed and stored in a refrigerator at −20° C. The in-house compound Ref1 was used as a positive control for testing of JAK1, JAK2 and Tyk2, and Ref2 was used as a positive control for testing of JAK3.
(§3) • S2.1. 1M HEPES buffer: 0.5M HEPES free acid and 0.5M HEPES sodium salt are weighed, added into ultrapure water for dissolution, brought to a desired volume, filtered and stored in a refrigerator at 4° C. • S2.2. 40 mM ATP solution: dissolved in a 50 mM HEPES buffer solution, prepared into 40 mM, aliquoted, and cryopreserved in a refrigerator at −20° C. • S2.3. 0.5% Tween 20: 100% Tween 20 was diluted with ultrapure water, and stored in a refrigerator at 4° C. • S2.4. 35% bovine serum albumin: a 35% bovine serum albumin solution is prepared in ultrapure water, aliquoted, and stored in a refrigerator at −20° C. • S2.5. 1M dithiothreitol solution: dithiothreitol is formulated into a 1M solution with ultrapure water, aliquoted, and stored in a refrigerator at −20° C. • S2.6. 0.5 mM Jaktide Peptide substrate solution: it is dissolved in 50 mM HEPES to 0.5 mM, aliquoted, and stored in a refrigerator at −20° C. • S2.7. 0.5 mM IRStide Peptide substrate solution: it is dissolved in 50 mM HEPES to 0.5 mM, aliquoted, and stored in a refrigerator at −20° C. • S2.8. Assay Buffer: 20 mM HEPES buffer, pH 7.4, 10 mM magnesium chloride, 0.01% bovine serum albumin BSA, 0.0005% Tween-20, and a 1 mM dithiothreitol solution. • S2.9. Stop Buffer: 180 mM HEPES buffer, 20 mM ethylenediamine tetraacetic acid (EDTA), and 0.2% Coating Reagent 3. • S2.10. Separation Buffer: 100 mM HEPES buffer, 10 mM EDTA, 0.0005% Tween 20, 0.1% Coating Reagent 3, and 1% dimethyl sulfoxide. 3. Experimental Procedures • S3.1. Preparation of compound plate
(§4) The compound is dissolved in dimethyl sulfoxide to 10 mM, a certain volume is taken and diluted to 0.6 mM, 10 μl of the diluted 0.6 mM solution is taken and added into a 384 microplate or 1:3 serial dilution, with a total of 8 concentration points. • S3.2. Compound layout
(§5) • positive control (HPE1): Ref1, final concentration: 10 μM • positive control (HPE1): Ref2, final concentration: 10 μM • negative control (ZPE): DMSO, with a final concentration of 1.6% • Compound: the highest final concentration at 10 μM, 1:3 serial dilution, with 8 concentration points and in duplicates. 4. Experimental operation steps • S4.1. the experimental plate was added with 250 nl of the compound per well with ECHO, and centrifuged at 1,000 rpm for 1 minute; • S4.2. the precipitate was added with 5 μl of the experimental buffer, and shaken for several seconds to fully dissolve the compound; • S4.3. the solution was added with 5 μl of a 3× substrate solution, as well as 5 μl of a 3× kinase solution, and centrifuged at 800 rpm for 1 minute; • S4.4. The final concentrations of JAK1, JAK2, JAK3 and Tyk2 kinases in the reaction system are 20, 1, 1 and 1 nM, respectively. • S4.5. the reaction system is incubated at room temperature, wherein the incubation time of each kinase is different, and there are differences in incubation time of different batches of kinases. • S4.6. When the reaction reaches 20%-30%, the reaction system is added with 15 μl of the stop buffer to terminate the reaction, and centrifuged at 1,000 rpm for 2 minutes. • S4.7. The precipitate was placed onto a EZ Reader for plate reading. • S4.8. […]

Tyk2 = Tyk2 (Homo sapiens, UniProt P29597); experiment: Inhibition of JAK kinase activity, EZ Reader microfluidic phosphorylation of peptide substrate: Tyk2; details: Tyk2 kinase 1 nM; highest final concentration 10 μM, 1:3 serial dilution, 8 points, duplicates
Text: as §1, §2, §3, §4, §5

JAK1 = JAK1 (Homo sapiens, UniProt P23458); experiment: Inhibition of JAK kinase activity, EZ Reader microfluidic phosphorylation of peptide substrate: JAK1; details: JAK1 kinase 20 nM; highest final concentration 10 μM, 1:3 serial dilution, 8 points, duplicates
Text: as §1, §2, §3, §4, §5

JAK3 = biological target: T1, JAK3 (Homo sapiens, UniProt P52333); experiment: Inhibition of JAK kinase activity, EZ Reader microfluidic phosphorylation of peptide substrate: JAK3; details: JAK3 kinase 1 nM; highest final concentration 10 μM, 1:3 serial dilution, 8 points, duplicates
T1 sequence (P52333 1-1124): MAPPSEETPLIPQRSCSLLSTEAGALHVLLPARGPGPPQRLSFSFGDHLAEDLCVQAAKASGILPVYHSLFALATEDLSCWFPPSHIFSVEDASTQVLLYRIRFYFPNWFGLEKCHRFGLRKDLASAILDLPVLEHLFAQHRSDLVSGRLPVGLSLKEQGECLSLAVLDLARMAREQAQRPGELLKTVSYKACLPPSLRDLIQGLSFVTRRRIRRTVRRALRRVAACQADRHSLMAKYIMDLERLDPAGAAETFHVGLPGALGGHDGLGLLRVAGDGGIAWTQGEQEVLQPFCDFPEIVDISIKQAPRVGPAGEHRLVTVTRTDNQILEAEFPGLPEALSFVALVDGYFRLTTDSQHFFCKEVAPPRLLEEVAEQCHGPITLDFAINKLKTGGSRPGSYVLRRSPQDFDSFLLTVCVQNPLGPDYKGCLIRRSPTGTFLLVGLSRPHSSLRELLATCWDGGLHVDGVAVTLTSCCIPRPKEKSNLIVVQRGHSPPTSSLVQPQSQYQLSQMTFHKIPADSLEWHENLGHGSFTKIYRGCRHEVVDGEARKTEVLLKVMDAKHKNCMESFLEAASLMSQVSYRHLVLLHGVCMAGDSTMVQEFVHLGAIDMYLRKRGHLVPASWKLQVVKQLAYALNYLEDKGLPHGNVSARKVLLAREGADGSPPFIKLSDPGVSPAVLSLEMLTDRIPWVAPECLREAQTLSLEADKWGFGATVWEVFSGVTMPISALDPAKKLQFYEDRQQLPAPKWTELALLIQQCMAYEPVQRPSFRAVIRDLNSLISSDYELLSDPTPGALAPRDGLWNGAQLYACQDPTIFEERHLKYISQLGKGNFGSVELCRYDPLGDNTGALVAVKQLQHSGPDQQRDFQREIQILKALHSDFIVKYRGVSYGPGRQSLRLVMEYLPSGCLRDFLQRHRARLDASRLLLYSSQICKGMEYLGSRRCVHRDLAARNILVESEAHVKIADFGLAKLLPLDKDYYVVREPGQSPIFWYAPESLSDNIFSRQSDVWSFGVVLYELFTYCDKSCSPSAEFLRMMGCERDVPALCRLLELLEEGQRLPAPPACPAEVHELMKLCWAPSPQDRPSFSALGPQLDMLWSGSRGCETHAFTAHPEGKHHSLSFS
Text: as §1, §2, §3, §4, §5

Sequence of Tyk2 (P29597 whole entry): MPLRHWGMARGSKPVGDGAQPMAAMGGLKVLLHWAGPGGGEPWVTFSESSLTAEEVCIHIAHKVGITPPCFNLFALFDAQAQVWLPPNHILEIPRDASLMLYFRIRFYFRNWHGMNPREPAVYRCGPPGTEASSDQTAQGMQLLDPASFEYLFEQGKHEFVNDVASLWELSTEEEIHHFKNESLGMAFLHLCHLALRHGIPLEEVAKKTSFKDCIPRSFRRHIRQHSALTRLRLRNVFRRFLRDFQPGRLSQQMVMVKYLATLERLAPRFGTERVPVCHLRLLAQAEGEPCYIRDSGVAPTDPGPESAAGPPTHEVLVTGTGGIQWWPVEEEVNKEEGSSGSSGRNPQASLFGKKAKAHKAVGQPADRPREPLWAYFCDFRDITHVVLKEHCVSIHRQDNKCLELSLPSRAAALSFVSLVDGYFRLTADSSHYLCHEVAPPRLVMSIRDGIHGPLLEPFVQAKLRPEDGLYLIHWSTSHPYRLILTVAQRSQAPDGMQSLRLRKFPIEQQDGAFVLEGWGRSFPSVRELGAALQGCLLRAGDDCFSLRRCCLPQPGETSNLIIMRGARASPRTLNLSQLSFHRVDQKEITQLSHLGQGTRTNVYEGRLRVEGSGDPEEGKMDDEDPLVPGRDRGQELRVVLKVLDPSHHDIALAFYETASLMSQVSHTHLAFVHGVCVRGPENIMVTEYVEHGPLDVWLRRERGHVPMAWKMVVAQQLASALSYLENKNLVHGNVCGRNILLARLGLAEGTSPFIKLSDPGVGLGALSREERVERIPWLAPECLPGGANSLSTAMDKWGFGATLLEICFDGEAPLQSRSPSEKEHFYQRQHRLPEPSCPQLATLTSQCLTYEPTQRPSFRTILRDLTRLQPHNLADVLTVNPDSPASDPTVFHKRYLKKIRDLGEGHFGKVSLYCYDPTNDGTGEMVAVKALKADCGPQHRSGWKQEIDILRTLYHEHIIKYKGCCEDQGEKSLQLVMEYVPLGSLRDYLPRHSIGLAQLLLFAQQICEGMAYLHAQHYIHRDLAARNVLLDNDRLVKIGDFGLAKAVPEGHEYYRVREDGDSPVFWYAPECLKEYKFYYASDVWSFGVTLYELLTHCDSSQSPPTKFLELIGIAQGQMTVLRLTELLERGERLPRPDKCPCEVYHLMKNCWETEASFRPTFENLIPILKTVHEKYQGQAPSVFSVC
Sequence of JAK1 (P23458 whole entry): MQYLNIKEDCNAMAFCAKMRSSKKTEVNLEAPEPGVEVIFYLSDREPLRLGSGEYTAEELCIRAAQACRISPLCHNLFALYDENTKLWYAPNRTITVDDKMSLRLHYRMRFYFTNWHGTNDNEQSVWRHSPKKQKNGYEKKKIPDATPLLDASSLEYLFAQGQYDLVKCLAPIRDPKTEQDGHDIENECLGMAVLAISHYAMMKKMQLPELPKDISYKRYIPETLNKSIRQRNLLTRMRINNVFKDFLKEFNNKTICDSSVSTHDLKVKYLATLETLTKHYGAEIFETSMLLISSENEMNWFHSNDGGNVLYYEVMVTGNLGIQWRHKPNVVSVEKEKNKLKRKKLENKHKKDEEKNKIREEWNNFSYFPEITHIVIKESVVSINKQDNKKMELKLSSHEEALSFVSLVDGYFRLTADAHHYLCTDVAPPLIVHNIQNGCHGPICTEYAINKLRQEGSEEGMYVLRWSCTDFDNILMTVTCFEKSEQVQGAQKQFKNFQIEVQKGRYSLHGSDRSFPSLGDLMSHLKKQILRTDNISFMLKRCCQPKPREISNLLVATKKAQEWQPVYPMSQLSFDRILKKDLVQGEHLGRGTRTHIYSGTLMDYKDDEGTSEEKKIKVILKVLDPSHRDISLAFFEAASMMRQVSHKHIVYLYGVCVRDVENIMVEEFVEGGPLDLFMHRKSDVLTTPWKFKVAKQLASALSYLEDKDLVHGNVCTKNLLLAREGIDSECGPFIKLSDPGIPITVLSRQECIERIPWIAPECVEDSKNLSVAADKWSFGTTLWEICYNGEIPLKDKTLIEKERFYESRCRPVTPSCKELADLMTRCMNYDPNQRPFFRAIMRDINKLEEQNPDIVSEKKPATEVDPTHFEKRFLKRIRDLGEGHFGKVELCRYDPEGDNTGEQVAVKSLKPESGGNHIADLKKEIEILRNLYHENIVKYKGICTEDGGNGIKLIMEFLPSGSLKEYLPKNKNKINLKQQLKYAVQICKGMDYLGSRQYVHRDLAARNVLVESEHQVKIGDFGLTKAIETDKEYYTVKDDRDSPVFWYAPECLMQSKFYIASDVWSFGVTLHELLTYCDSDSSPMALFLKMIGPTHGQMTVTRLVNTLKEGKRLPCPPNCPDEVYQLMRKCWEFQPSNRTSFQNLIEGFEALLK
Sequence of JAK2 (O60674 whole entry): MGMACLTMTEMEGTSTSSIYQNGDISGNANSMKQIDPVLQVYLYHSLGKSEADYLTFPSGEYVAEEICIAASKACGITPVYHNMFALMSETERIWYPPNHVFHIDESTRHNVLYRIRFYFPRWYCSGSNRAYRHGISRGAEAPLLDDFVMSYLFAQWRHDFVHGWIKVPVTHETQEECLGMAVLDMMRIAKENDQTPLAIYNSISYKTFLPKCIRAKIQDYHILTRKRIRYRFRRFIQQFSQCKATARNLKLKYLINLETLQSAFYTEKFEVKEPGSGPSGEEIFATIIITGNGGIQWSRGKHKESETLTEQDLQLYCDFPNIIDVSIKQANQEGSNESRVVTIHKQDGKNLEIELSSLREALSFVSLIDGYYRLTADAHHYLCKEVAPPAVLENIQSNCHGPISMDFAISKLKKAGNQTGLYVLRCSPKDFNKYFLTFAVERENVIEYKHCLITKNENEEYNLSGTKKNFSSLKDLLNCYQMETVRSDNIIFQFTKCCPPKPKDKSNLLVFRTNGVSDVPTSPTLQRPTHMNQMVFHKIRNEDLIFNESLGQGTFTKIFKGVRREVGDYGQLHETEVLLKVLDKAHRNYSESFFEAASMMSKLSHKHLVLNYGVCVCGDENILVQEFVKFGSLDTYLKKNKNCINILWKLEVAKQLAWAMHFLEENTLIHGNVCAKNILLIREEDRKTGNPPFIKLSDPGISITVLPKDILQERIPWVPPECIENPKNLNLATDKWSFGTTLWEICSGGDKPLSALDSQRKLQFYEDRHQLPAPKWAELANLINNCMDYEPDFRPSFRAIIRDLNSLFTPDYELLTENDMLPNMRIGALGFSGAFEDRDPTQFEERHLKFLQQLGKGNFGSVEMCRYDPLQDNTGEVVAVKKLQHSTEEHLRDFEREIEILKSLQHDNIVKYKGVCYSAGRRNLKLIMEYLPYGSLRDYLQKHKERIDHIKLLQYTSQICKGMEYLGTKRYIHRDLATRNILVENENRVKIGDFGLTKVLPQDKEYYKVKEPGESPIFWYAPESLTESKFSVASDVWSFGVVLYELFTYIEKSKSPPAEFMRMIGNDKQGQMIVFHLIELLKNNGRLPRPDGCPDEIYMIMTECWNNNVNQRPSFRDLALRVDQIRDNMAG

Row | IC50 (JAK2) | IC50 (Tyk2) | IC50 (JAK1) | IC50 (JAK3) | SMILES
1 | < 0.1 µM | < 0.1 µM | 0.1 to 1 µM | 1 to 10 µM | Cn1cc(Nc2nccc(-c3cnn(C4(CC#N)CN(S(=O)(=O)C5CC5)C4)c3)n2)cn1 [TDM-180766, 2-(1-(cyclopropylsulfonyl)-3-(4-(2-((1-methyl-1H-pyrazol-4-yl)amino)pyrimidin-4-yl)-1H-pyrazol-1-yl)azetidinpyridin-3-yl)acetonitrile]
2 | ≥ 10 µM | ≥ 10 µM | ≥ 10 µM | ≥ 10 µM | Cn1cc(Nc2nccc(-c3cnn(C4CCN(C(=O)C5CC5(F)F)CC4)c3)n2)cn1 (stereo not shown) [TDM-180679, (2,2-difluorocyclopropyl)(4-(4-(2-((1-methyl-1H-pyrazol-4-yl)amino)pyrimidin-4-yl)-1H-pyrazol-1-yl)piperidin-1-yl)ketone]
3 | ≥ 10 µM | ≥ 10 µM | ≥ 10 µM | ≥ 10 µM | CCCC(=O)N1CC(n2cc(-c3ccnc(Nc4cnn(C)c4)n3)cn2)C1 [TDM-180670]
4 | ≥ 10 µM | ≥ 10 µM | ≥ 10 µM | ≥ 10 µM | CCCC(=O)N1CC(n2cc(-c3ccnc(Nc4cnn(C)c4)c3)cn2)C1 [TDM-180640, 1-(3-(4-(2-((1-methyl-1H-pyrazol-4-yl)amino)pyridin-4-yl)-1H-pyrazol-1-yl)azetidin-1-yl)butan-1-one]
5 | ≥ 10 µM | ≥ 10 µM | ≥ 10 µM | ≥ 10 µM | Cn1cc(Nc2nccc(-c3cnn(C4CN(C(=O)CC(F)(F)F)C4)c3)n2)cn1 [TDM-180669, 3,3,3-trifluoro-1-(3-(4-(2-((1-methyl-1H-pyrazol-4-yl)amino)pyrimidin-4-yl)-1H-pyrazol-1-yl)azetidin-yl)propan-1-one]
6 | ≥ 10 µM | ≥ 10 µM | ≥ 10 µM | ≥ 10 µM | Cn1cc(Nc2nccc(-c3cnn(C4CCN(C(=O)CO)CC4)c3)n2)cn1 [TDM-180681, 2-hydroxy-1-(4-(4-(2-((1-methyl-1H-pyrazol-4-yl)amino)pyrimidin-4-yl)-1H-pyrazol-1-yl)piperidin-1-yl)ethanone]
7 | ≥ 10 µM | ≥ 10 µM | ≥ 10 µM | ≥ 10 µM | CCCC(=O)N1CCC(n2cc(-c3ccnc(Nc4cnn(C)c4)n3)cn2)CC1 [TDM-180677, 1-(4-(4-(2-((1-methyl-1H-pyrazol-4-yl)amino)pyrimidin-4-yl)-1H-pyrazol-1-yl)piperidin-1-yl)butan-1-one]
8 | 0.1 to 1 µM | 0.1 to 1 µM | 0.1 to 1 µM | 1 to 10 µM | CCCS(=O)(=O)N1CC(CC#N)(n2cc(-c3ccnc(Nc4cnn(C)c4)n3)cn2)C1 [TDM-180794, 2-(3-(4-(2-((1-methyl-1H-pyrazol-4-yl)amino)pyrimidin-4-yl)-1H-pyrazol-1-yl)-1-(propylsulfonyl)azacyclobutanpyridin-3-yl)acetonitrile]
9 | 0.1 to 1 µM | 0.1 to 1 µM | 1 to 10 µM | ≥ 10 µM | Cn1cc(Nc2nccc(-c3cnn(C4(CC#N)CN(S(=O)(=O)Cc5ccccc5)C4)c3)n2)cn1 [TDM-180795, 2-(1-(benzylsulfonyl)-3-(4-(2-((1-methyl-1H-pyrazol-4-yl)amino)pyrimidin-4-yl)-1H-pyrazol-1-yl)azetidinpyridin-3-yl)acetonitrile]
10 |  | < 0.1 µM | < 0.1 µM |  | Cn1cc(Nc2nccc(-c3ccn(C4(CC#N)CN(S(=O)(=O)CC(F)(F)F)C4)c3)n2)cn1 [TDM-180866, 2-(3-(3-(2-((1-methyl-1H-pyrazol-4-yl)amino)pyrimidin-4-yl)-1H-pyrrol-1-yl)-1-((2,2,2-trifluoroethyl)sulfonyl)azetidin-3-yl)acetonitrile]
11 |  | 0.1 to 1 µM | 0.1 to 1 µM |  | CCS(=O)(=O)N1CC(CC#N)(n2ccc(-c3ccnc(Nc4cnn(C)c4)n3)n2)C1 [TDM-180922, 2-(1-(ethylsulfonyl)-3-(3-(2-((1-methyl-1H-pyrazol-4-yl)amino)pyrimidin-4-yl)-1H-pyrazol-1-yl)azetidinpyridin-3-yl)acetonitrile]
12 |  | 1 to 10 µM | 0.1 to 1 µM |  | Cn1cc(Nc2nccc(-c3ccn(C4(CC#N)CN(S(=O)(=O)C5CCOCC5)C4)n3)n2)cn1 [TDM-180912, 2-(3-(3-(2-((1-methyl-1H-pyrazol-4-yl)amino)pyrimidin-4-yl)-1H-pyrazol-1-yl)-1-((tetrahydro-2H-pyran-4-yl)sulfonyl)azetidin-3-yl)acetonitrile]
13 |  | 1 to 10 µM | 1 to 10 µM |  | COCC(=O)N1CC(CC#N)(n2cc(-c3ccnc(Nc4cnn(C)c4)n3)cn2)C1 [TDM-180765, 2-(1-(2-methoxyacetyl)-3-(4-(2-((1-methyl-1H-pyrazol-4-yl)amino)pyrimidin-4-yl)-1H-pyrazol-1-yl)azetidin-3-yl)acetonitrile]
14 |  | 0.1 to 1 µM | 0.1 to 1 µM |  | Cn1cc(Nc2nccc(-c3cnn(C4(CC#N)CN(S(=O)(=O)CC5CC5)C4)c3)n2)cn1 [TDM-180931, 2-(1-((cyclopropylmethyl)sulfonyl)-3-(4-(2-((1-methyl-1H-pyrazol-4-yl)amino)pyrimidin-4-yl)-1H-pyrazol-1-yl)azetidin-3-yl)acetonitrile]
